These results are taken from patent US20060110405A1, “Plasma or serum fraction for treatment and prevention of viral infections and related conditions” (priority 2004, published 2006).

Values after ≈ are worked out from the molar mass of the structure shown. Where only a bound is given, the exact number is not on record here.

As a reminder, the IC50 is the point on the concentration scale where inhibition reaches its midpoint. Low values mean greater potency in that assay, high ones weaker potency in that assay. As a reminder, the EC50 is the concentration that produces a half-maximal response. Low readings indicate higher potency in that assay, high ones lower potency in that assay.

One data set has as its system HeLa LTR β-Gal cells. The experiment in a line: Cellular toxicity in parallel plates, tetrazolium dye (XTT) cell viability end point. As for the experimental part: The fold increase in activity was calculated as a relative decrease in EC50 to the Week 0 material. Chicago Sky Blue was included as a positive control for inhibition of viral attachment.
HIV Attachment Assay: A crude serum sample dialyzed against Buffer A, the dialyzed 66% ammonium sulfate pellet, and DEAE-Blue fractions 12, 14, 60, 62, 64, and 66 were analyzed for anti-HIV activity in a virus attachment assay. These fractions were diluted in Buffer A to a 2× high test concentration and analyzed for anti-HIV activity in a cell attachment assay that utilizes a galactosidase reporter to measure virus attachment and infection. Sister plates were used to evaluate fraction toxicity using an XTT based end point. Briefly, on the day prior to compound and virus addition, 100 μL of HeLa LTR β-Gal cells at a density of 1×10^4/well in 10% complete DMEM were plated in 96-well flat bottomed plates and incubated overnight at 37° C./5% CO2. Duplicate plates were seeded in order to evaluate efficacy and toxicity in parallel. Following the overnight incubation, selected protein fractions diluted to a high test concentration in culture media and were further diluted in ½ log increments such that a total of 6 concentrations were evaluated.
Medium was removed and 50 μL of the prepared compound dilutions were added in triplicate to both plates. A volume of 50 μL of 10% complete DMEM was added to the virus control wells and 100 μL was added to the cell control wells. Plates were incubated for approximately 15-30 minutes while virus (HIV-1 IIIB) was being prepared. The appropriate titer of virus used in the assay was determined and prepared and 50 μL was then added to the wells containing compound and the virus control wells on the efficacy plate. On the toxicity plate, 50 μL of 10% complete DMEM was added to these same wells. Plates were incubated for 2 hours at 37° C./5% CO2. […] Following the washing steps, 200 μL of 10% complete DMEM was added to all wells and the plates were incubated at 37° C./5% CO2 for 48 hours. The toxicity plates were evaluated by the addition of the tetrazolium dye XTT which is converted by mitochondrial enzymes in viable cells to a soluble formazan product. Efficacy plates were evaluated by the chemilluminescence detection assay.
(Tetrazolium dyes change colour on reduction, which living cells bring about.)

A further data set deals with HIV-1 IIIB. Put plainly: microbe, parasite or virus in culture. In kind it is cell-based. As for the experimental part: Antibody depletion experiments were conducted on the product prepared as described in Example 3 by the panning technique as follows. […] The plate was incubated for 3 hours at room temperature. Following the incubation, the antibodies and PBS were removed and 200 μL of blocking solution (0.05% Tween 20, 10 mg/mL BSA in PBS) was added and the plate was incubated overnight at 4° C. Following the overnight incubation, the wells were washed 5 times with wash buffer (PBS plus 0.05% Tween-20). One hundred fifty microliters (150 μL) of the serum product (designated VR-30) was added to each of the wells and the plate was incubated for 2 hours at 37° C.
The serum was then removed and used in the HIV-β-galactosidase attachment assay. The depleted material was evaluated for activity in parallel with undepleted VR-30 (VR-30 Std Treatment) and mock-depleted VR-30 (VR-30 PBS).
The anti-HIV-activity of the initial serum sample is determined by: (1) measuring the protein concentration of the serum fraction using Bradford or Lowery based method for determining protein concentration; (2) determining the activity of the fraction using established in vitro anti-viral assay (attachment assay); (3) assigning a unit of activity to the fraction based on the amount of protein needed to achieve a 50% inhibition of viral replication/infectivity (IC50). This unit can be used as a baseline to track the fold purification obtained through the fractionation process.
Efficacy plates were evaluated by the chemilluminescence detection assay.
All EC50's in FIG. 2 and Table IV are the concentration of total protein (μg/ml) in a given fraction that inhibited viral replication in the attachment assay to 50% of the no compound control.

In data set [1] the test system is monocytes and macrophages. Conditions: antiviral models and cytokine induction from monocytes and macrophages; cited from earlier work.

For `COc1cc(-c2ccc(/N=N/c3ccc4c(S(=O)(=O)O)cc(S(=O)(=O)O)c(N)c4c3O)c(OC)c2)ccc1/N=N/c1ccc2c(S(=O)(=O)O)cc(S(=O)(=O)O)c(N)c2c1O` [Chicago Sky Blue], the TC50 in the data set with HeLa LTR β-Gal cells (Table I, control compounds) is above 10 µg/mL; in the data set on HeLa LTR β-Gal cells (Table II, 50% cellular toxicity, XTT) it was above 10000 µg/mL; in the data set with HeLa LTR β-Gal cells (Table V, XTT toxicity plates), above 10 µg/mL. Further, the IC50 in the data set on HIV-1 IIIB (Human immunodeficiency virus 1, IIIB, HeLa) worked out at 1.3 µg/mL (≈ 1.44 µM). Besides, the EC50 in the data set on HIV-1 IIIB (Human immunodeficiency virus 1, IIIB, HeLa, Table II, total protein for 50% inhibition of HIV attachment and replication, triplicate) amounted to 100 µg/mL (≈ 111 µM); in the data set on HIV-1 IIIB (Human immunodeficiency virus 1, IIIB, HeLa, Table V, total protein inhibiting viral replication to 50% of no compound control, HIV-1 IIIB), 0.6 µg/mL (≈ 0.663 µM).

On to `CCOCc1nc2c(N)nc3ccccc3c2n1CC(C)(C)O` [Fraction S-28463, 4-Amino-otec,-dimethyl-2-ethoxymethyl-lH-imidazo[4,5-c]quinoline-1-ethanol], for which the “potency relative to imiquimod” value in data set [1] was “about 100 fold”.

In the data set with HeLa LTR β-Gal cells (Table I, control compounds), Dextran Sulfate yielded a TC50 above 25 µg/mL. In the data set on HIV-1 IIIB (Table I, control compounds), this molecule showed an IC50 of 0.65 µg/mL.
